# Assay results from patent US20140303216A1, “COMPOSITIONS AND METHODS FOR INDUCING DISRUPTION OF BLOOD VASCULATURE AND FOR REDUCING ANGIOGENESIS” (BOARD OF REGENTS, THE UNIVERSITY OF TEXAS SYSTEM, priority 2011, published 2014).
# Like-named read-outs stand apart in the source and are kept apart here.
# Assays:
# HUVEC cells = test: HUVEC apoptosis and proliferation (Caspase-3, Phospho-histone H3 immunostaining); type: cell-based, human; conditions: cultured on 0.1% gelatin
# Excerpt: FIG. 18. TBZ treatment (A) increases apoptosis and (B) decreases proliferation of HUVEC cells cultured on 0.1% gelatin, but only by approximately 2-fold. Both changes are significant under a t test (p=0.015, p=0.01, respectively). Error bars represent mean±1 s.d. across 14-16 fields of view of 200× magnification confocal microscopy cell images across 2-3 independent experiments. Scale bar, 100 μm.
# Control cells received 1% DMSO.
# tubulin proteins = test: Quantitative mass spectrometry of tubulins in HUVECs; type: cell-based, human; conditions: 250 μM TBZ, 24 hours
# Experimental: Following alkylation, samples were diluted in digestion buffer (50 mM Tris-HCl, pH 8.0, 2 mM CaCl2) to a final 2,2,2-trifluoroethanol concentration of 5% (v/v) and digested using proteomics grade trypsin (Sigma) at 1:50 (enzyme/protein) concentration and incubated at 37° C. for 4-5 h. Digestion was halted with the addition of 1% formic acid (v/v), and sample volume was reduced to 200 μl by SpeedVac centrifugation prior to loading on […] (Thermo). Samples were eluted (60% acetonitrile, 0.1% formic acid), reduced to 10 μl by SpeedVac centrifugation, and resuspended in sample buffer (5% acetonitrile, 0.1% formic acid). Tryptic peptides were then filtered through Microcon 10-kDa centrifugal filters (Millipore), and collected as flow-through. Peptides were chromatographically separated on a Zorbax reverse-phase C-18 column (Agilent) via a 230 min 5-38% acetonitrile gradient, then analyzed by on-line nanoelectrospray-ionization tandem mass spectrometry on an LTQ-Orbitrap (Thermo Scientific). […] Differential expression of proteins across TBZ-treated and control samples was quantified from the MS2 spectral count data using the APEX method of relative quantification^32.
# [1] = tested on: HT1080 human fibrosarcoma xenograft; test: HT1080 human fibrosarcoma xenograft model; type: in vivo, athymic Cre nu/nu mice; conditions: TBZ 50 mg/kg
# Experimental: Specific pathogen-free athymic Cre Nu/nu mice were purchased from Charles River Laboratories. The HT-1080 human fibrosarcoma cell line was obtained from the American Type Culture Collection (ATCC). HT-1080 cells were cultured in DMEM (Gibco) containing 10% fetal bovine serum (FBS, Gibco) in tissue culture flasks at 37° C. in a humidified atmosphere of 5% CO2. In order to generate a mouse xenograft model, a suspension of the HT-1080 cells (3×10^6 in 50p1 PBS) mixed with an equal volume of Matrigel (BD Bioscience) was subcutaneously implanted into the flank region of 7-8 week old female mice. Upon establishment of tumors (approx. 40 mm^3), mice were given intraperitoneal injections of 1 mg thiabendazole (Sigma-Aldrich), suspended in 20 μl 100% DMSO. As a control, an equal volume of DMSO was injected in the same manner. Tumor growth was monitored by measuring the length and width of each tumor using digital calipers, and the tumor volume in mm^3 calculated by the formula: Volume=(width)^2×length/2. Upon a tumor reaching the maximum size permitted by the Institutional Animal Care and Use Committee (1.5 cm in diameter), the mouse was sacrificed, and the tumor excised. […] Control cells received 1% DMSO.
# [2] = short-term or long-term studies at doses up to 15 times the usual human dose; cited from earlier work
# [3] = rats; cited from earlier work
# [4] = mice; cited from earlier work
# mitochondria = test: Mitochondrial mass and membrane potential (MitoTracker Green/Red); type: cell-based
# [5] = tested on: developing Xenopus embryos; test: Xenopus embryo angiogenesis, in situ hybridization for erg/apinr and kdr:GFP imaging; type: in vivo, Xenopus laevis
# Excerpt: Female adult Xenopus were ovulated by injections of human chorionic gonadotropin, and eggs were fertilized in vitro and dejellied in 3% cysteine (pH 7.9) and subsequently reared in ⅓×Marc's modified Ringer's (MMR) solution. For microinjections, embryos were placed in a solution of 2% Ficoll in ⅓×MMR solution, injected using forceps and an Oxford universal manipulator, reared in 2% Ficoll in ⅓×MMR to stage 9, then washed and reared in ⅓×MMR solution alone. For bilateral rab11b knock-down experiments, the posterior cardinal vein and intersomitic veins were targeted by injecting Morpholino antisense oligonucleotides (MOs) into the two ventral cells equatorially at the four-cell stage. For unilateral knockdown, only one ventral cell was injected. MOs were injected at 40 ng per blastomere. For the experiments to see the drug effects, embryos were placed in a solution of each chemical dissolved in 1% DMSO diluted in ⅓×MMR during indicated stages. For bead micro-surgery implantation, Affi-Gel Blue Gel beads (Bio-Rad) were soaked with 0.7 mg/ml recombinant mouse VEGF 164 aa (R&D systems) or BSA as a control. Whole-mount in situ hybridization for erg and apinr was performed as described^29.
# To analyze action of TBZ precisely on inhibition of angiogenesis and disruption of vasculature, we tested TBZ on two different developmental stages. Xenopus late tailbud embryos at stage 31 were selected for testing the inhibitory effect of TBZ on angiogenesis (FIG. 3A-D). This embryonic stage coincides with the onset of intersomitic vein (ISV) angiogenesis, the process of forming smaller blood vessels by sprouting from pre-existing blood vessels. To observe disruption of existing vasculature, we selected stage 35/36 embryos in which the posterior cardinal vein (PCV) and ISV are already developed (FIG. 15).
# HUVECs = test: HUVEC cytoskeleton imaging (actin stress fibers, β-tubulin immunohistochemistry)
# Experimental: Alexa Fluor 488 phalloidin (Invitrogen) and/or 4′,6-Diamidino-2-phenylindole (Sigma) were added as needed.
# VEGF = VEGF levels in HT1080 cells (Western blotting, ELISA); type: cell-based, human; conditions: 250 μM TBZ, 24 hours
# Experimental: Cells were lysed in cell lysis buffer (Cell Signaling Technology) containing 1 mM PMSF, and analyzed by SDS-PAGE and western blotting using anti-VEGF (Santa Cruz, A-20) or anti-GAPDH (Cell Signaling Technology) antibodies. The secreted VEGF level in culture media was determined by enzyme-linked immunosorbent assay (ELISA; R&D) according to the manufacturer's instructions.
structure (smiles),measurement,setting,value
"c1ccc2[nH]c(-c3cscn3)nc2c1 [TBZ, 4-(1H-1,3-benzodiazol-2-yl)-1,3-thiazole]",decrease of proliferation of HUVEC cells,HUVEC cells; p=0.01,approximately 2 fold
same,increase of apoptosis of HUVEC cells,HUVEC cells; p=0.015,approximately 2 fold
same,abundance of several tubulin proteins,tubulin proteins,significant reduction
same,tumor microvessel density in xenografts (CD31 staining),[1],significantly impair
same,"xenograft growth, time course of tumor size and final tumor mass","[1]; intraperitoneal, 27 d",significantly slowed
same,carcinogenic effects,[2],no carcinogenic effects
same,effect on fertility,[3],does not appear to affect fertility
same,effect on fertility,[4],does not appear to affect fertility
same,mitochondrial mass (MitoTracker Green signal),mitochondria,no differences
same,mitochondrial membrane potential (ratio of MitoTracker Red signal to Mitotracker Green signal),mitochondria,no differences
same,concentration at which angiogenesis inhibition was observed,[5]; Xenopus embryos in vivo,100 to 250 µM
same,"angiogenesis, expression of vascular-specific genes apinr and erg","[5]; Xenopus embryos, 250 μM TBZ in 1% DMSO, treated at stage 31, imaged at stages 35-36",severely impaired angiogenesis
same,disruption of pre-existing vasculature,"[5]; treatment at later stages (stage 36), in situ hybridization versus apinr at stage 39",overt breakdown of established vasculature
same,actin stress fibers,HUVECs; 250 μM TBZ versus 1% DMSO control,disorganization of actin stress fibers
same,gross organization of the MT cytoskeleton,"HUVECs; HUVEC cells in culture, 250 μM TBZ",only a very slight effect
same,level of VEGF expressed by HT1080 cells (Western blotting),VEGF,did not alter
same,level of VEGF secreted by HT1080 cells (ELISA),VEGF,did not alter
